Reference: patent US6153645A, “Heterocycles as antimicrobial agents” (Cubist Pharmaceuticals, Inc., priority 1999, dated 2000)
pIC50: −log10 of the molar value. Values after ≈ are worked out from the molar mass of the structure shown. Where two headings read alike, the source gives them in different places.

Columns and labels:
S.aureus = assay: Whole cell antimicrobial screen (MIC, NCCLS microdilution); type: cell-based; conditions: for MIC: Staphylococcus aureus
Procedure: Compounds were tested for antimicrobial activity against a panel of organisms according to standard procedures described by the National Committee for Clinical Laboratory Standards (NCCLS document M7-A3, Vol. 13, No. 25, 1993/NCCLS document M27-P, Vol. 12, No. 25, 1992). Compounds were dissolved in 100% DMSO and were diluted to the final reaction concentration (0.1 μg/ml-500 μg/ml) in microbial growth media. In all cases the final concentration of DMSO incubated with cells is less than or equal to 1%. For minimum inhibitory concentration (MIC) calculations, 2-fold dilutions of compounds were added to wells of a microtiter plate containing 5×10^4 bacteria or fungal cells in a final volume of 200 lambda of an appropriate media (Mueller-Hinton Broth; Haemophilus Test Media; Mueller-Hinton Broth+5% Sheep Blood; or […]). Plates were incubated overnight at an appropriate temperature (30° C.-37° C.) and optical densities (measure of cell growth) were measured using a commercial plate reader. The MIC value is defmed as the lowest compound concentration inhibiting growth of the test organism.

E.faecalis PheRS = biological target: T1, E.faecalis PheRS (Enterococcus faecalis, UniProt Q836J6); assay: aaRS charging and trichloroacetic acid precipitation assay, IC50 determination; type: biochemical; conditions: 20 min preincubation at 25 C; Km concentrations of substrates; stereoisomers tested separately
T1 sequence (Q836J6 1-348): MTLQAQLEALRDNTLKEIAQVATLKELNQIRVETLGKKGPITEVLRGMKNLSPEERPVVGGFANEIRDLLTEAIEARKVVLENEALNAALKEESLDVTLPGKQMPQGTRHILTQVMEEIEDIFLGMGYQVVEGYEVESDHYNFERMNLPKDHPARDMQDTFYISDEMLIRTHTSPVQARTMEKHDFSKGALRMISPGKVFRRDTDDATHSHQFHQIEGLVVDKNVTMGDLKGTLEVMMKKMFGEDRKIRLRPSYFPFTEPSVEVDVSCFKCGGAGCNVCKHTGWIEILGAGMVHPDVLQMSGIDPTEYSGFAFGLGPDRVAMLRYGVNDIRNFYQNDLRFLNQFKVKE
T1 sequence (Q836J5 1-807 partner): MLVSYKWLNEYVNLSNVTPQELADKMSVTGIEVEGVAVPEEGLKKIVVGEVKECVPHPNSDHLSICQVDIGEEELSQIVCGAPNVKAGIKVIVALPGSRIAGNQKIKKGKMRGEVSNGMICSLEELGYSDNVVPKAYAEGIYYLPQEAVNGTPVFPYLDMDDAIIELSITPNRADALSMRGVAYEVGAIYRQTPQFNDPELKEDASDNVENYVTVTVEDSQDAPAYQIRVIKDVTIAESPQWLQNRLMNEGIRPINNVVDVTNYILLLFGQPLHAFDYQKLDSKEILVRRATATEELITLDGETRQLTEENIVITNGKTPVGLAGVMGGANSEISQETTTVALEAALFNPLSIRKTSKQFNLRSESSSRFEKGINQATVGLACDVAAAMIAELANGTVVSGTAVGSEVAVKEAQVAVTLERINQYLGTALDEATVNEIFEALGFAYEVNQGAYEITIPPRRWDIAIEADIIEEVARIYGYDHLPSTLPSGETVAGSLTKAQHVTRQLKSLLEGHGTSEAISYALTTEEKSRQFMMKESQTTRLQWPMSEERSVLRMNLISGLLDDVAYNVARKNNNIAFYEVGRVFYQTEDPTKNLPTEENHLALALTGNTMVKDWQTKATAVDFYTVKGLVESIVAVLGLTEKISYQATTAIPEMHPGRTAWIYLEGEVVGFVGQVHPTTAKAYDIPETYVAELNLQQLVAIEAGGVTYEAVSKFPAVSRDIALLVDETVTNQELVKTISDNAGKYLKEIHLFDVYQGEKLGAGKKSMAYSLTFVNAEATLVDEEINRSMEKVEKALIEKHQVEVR
Procedure: IC50 determinations for the aminoacyl-tRNA synthetases (aaRS) isolated from pathogen or HeLa cells were carried out using a modification of the aaRS charging and trichloroacetic acid precipitation assay described previously (see examples: D. Kern et. al., Biochemie, 61, 1257-1272 (1979) and J. Gilbart et. al. Antimicrobial Agents and Chemotherapy, 37(1), 32-38 (1993)). The aaRS enzymes were prepared via standard cloning and expression methods and partially purified or partially purified from pathogen and HeLa cell extracts. The activity of each aaRS enzyme was standardized as trichloroacetic acid precipitable counts (cpm) obtained at 10 minutes reaction time at Km concentrations of substrates. For practical purposes, the minimal acceptable value is approximately 2000 cpm per 10 minute reaction.
Test compounds were typically present as serial dilutions in concentration ranges of 0.35 nM to 35 μM. Test compound solutions were prepared by dissolving test compound in 100% dimethyl sulfoxide and diluting to the final concentration with 50 mM HEPES, pH 7.5. IC50 determinations were typically performed in duplicate with each experiment containing 4-8 concentrations of inhibitor along with two no inhibitor controls.
IC50 incubations were initiated by supplementing the preincubation mixture to a final assay concentration of 10 mM MgCl2, 30 mM KCl, 10 mM KF, 50 mM HEPES (pH 7.5), […], 2-20 μM [^3 H] amino acid, and 90-180 μM crude tRNA in a final volume of 35 microliters. The reaction was incubated at 25° C. for 5-20 minutes. At specified time points a 15 microliter aliquot was removed and added to a well of a Millipore filtration plate (Multiscreen-FB, MAFB NOB 10) containing 100 microliters of cold 5% (wt/vol) trichloroacetic acid. Trichloroacetic acid precipitable material was collected by filtration on Millipore Multiscreen filtration station, washed twice with cold 5% trichloroacetic acid, twice with water, and dried. Plates were typically allowed to air dry for several hours or they were baked at 50° C. in a vacuum oven for 30 minutes. The radioactivity on the dried plates was quantitated by the addition of Packard Microscint-20 to the wells and counting with a Packard TopCount scintillation counter.
Inhibitor activity was typically reported as a percentage of the control aaRS activity. The IC50 value was determined by plotting per cent activity versus compound concentration in the assay and identifying the concentration at which 50% of the activity was remaining.
Stereoisomers are tested separately and referred to by the suffix a-d.

[1] = 2-fold dilutions, overnight incubation, optical density readout
[2] = 2-fold dilutions, overnight incubation, optical density readout, read-out: MIC S.aureus

Row | Structure (SMILES) | MIC S.aureus (S.aureus; [1]) [µg/mL] | pIC50 (E.faecalis PheRS) | MIC (S.aureus; [2]) [µg/mL] | MIC (S.aureus; read-out: MIC S.aureus, 2-fold dilutions, overnight incubation, optical density readout) [µg/mL]
1 | O=C(Nc1ccc(Cl)c(Cl)c1)C1C(c2ccccc2)OC23C(O)c4ccccc4C2OC(=O)C13 (single isomer, unassigned) [Example 1a] | 3.1 (≈ 6.25 µM) | 6.77 |  | 
2 | O=C(Nc1ccc(Cl)c(Cl)c1)C1C(c2ccccc2)OC23C(O)c4ccccc4C2OC(=O)C13 (single isomer, unassigned) [Example 1b] | 6.25 (≈ 12.6 µM) | 6.33 |  | 
3 | O=C(Nc1ccc(Cl)c(Cl)c1)C1C(c2ccccc2)NC23C(O)c4ccccc4C2OC(=O)C13 (single isomer, unassigned) [Example 3b] |  | 5.37 | 25 (≈ 50.5 µM) | 
4 | O=C(Nc1ccc(Cl)c(Cl)c1)C1C(c2ccccc2)NC23C(O)c4ccccc4C2OC(=O)C13 (single isomer, unassigned) [Example 3c] | 12.5 (≈ 25.2 µM) | 6.40 |  | 
5 | O=C(Nc1ccc(Cl)c(Cl)c1)C1C(c2ccccc2)OC23C(=O)c4ccccc4C2OC(=O)C13 (centres unmarked) [Example 2] |  | 5.51 | > 100 | 
6 | Cc1ccc(NC(=O)C2C(c3ccccc3)OC34C(O)c5ccccc5C3OC(=O)C24)cc1Cl (centres unmarked) [Example 4a] | > 100 | 5.83 |  | 
7 | Cc1ccc(NC(=O)C2C(c3ccccc3)OC34C(O)c5ccccc5C3OC(=O)C24)cc1Cl (centres unmarked) [Example 4b] | > 100 | 5.08 |  | 
8 | Cc1ccc(NC(=O)C2C(c3ccccc3)OC34C(O)c5ccccc5C3OC(=O)C24)cc1Cl (centres unmarked) [Example 4c] | 25 (≈ 52.5 µM) | 4.48 |  | 
9 | O=C(Nc1ccc(Cl)c(Cl)c1)C1C(c2ccccc2)OC23C(=NO)c4ccccc4C2OC(=O)C13 (centres unmarked) [Example 5] |  |  |  | < 100
